Experimental data: patent US6566355B1 (Hoffmann-La Roche Inc., priority 1991, dated 2003)
Structures can show the parent of a compound that is named as a salt. Where two headings read alike, the source gives them in different places.

Legend:
[1] = molecular target: T1, β-lactamase (Citrobacter freundii, UniProt P05193); assay: biochemical
T1 construct: Various β-lactamases can be isolated from penicillin- or cephalosporin-resistant bacterial strains such as; endogenous in cells; host or cells: Citrobacter freundii 1203 (enzyme purified from the crude cell extract, after ampicillin induction when necessary)
How it was run: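 β-lactamase from C. freundii 1203 crude extract (French press, 20 mM Tris-HCl pH 7.0) assayed with 0.1 mM nitrocefin in 50 mM phosphate pH 7.0 at 37° C, enzyme set to ΔA/min about 0.1, read at 482 nm. IC50 is inhibitor concentration giving 50% inhibition of nitrocefin cleavage, determined graphically.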

[2] = test system: Citrobacter freundii; assay: MIC in vitro of a 1:4 combination of ceftriaxone with a compound of formula I (test D); format: cell-based; details: 1:4 combination of ceftriaxone with the compound
Procedure: D. Determination of the β-lactamase-inhibiting activity by combination of a compound of general formula I with ceftriaxone
The minimum inhibitory concentration in vitro (MIC in μg/ml) of a 1:4 combination of ceftriaxone with a compound of formula I against Citrobacter freundii is measured and compiled in Table 2 hereinafter.

[3] = IC 50 nM, isolated β-lactamase of Citrobacter freundii, substrate nitrocefin 0.1 mM, 15 minutes pre-incubation with inhibitor, 37° C., pH 7.0

T1 sequence (P05193 21-381): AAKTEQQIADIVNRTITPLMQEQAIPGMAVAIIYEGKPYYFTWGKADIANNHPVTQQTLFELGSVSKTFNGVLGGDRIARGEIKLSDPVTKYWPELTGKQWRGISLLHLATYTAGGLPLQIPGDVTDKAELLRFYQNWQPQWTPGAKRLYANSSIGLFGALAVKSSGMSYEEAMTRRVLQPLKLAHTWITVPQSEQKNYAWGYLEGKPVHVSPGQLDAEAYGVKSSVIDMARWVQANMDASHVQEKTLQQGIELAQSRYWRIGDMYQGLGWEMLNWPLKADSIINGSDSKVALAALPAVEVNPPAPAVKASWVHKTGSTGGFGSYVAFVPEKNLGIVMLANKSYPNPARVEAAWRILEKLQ

Structure (SMILES)	IC50 [1]	MIC [2]	IC50 [1, 3]
CC(=O)NC(C(=O)N1CC[C@@H]2[C@H]1C(=O)N2S(=O)(=O)O)c1ccccc1 (single isomer, unassigned) [5(g), (1S,5R)-2-[D- or L-N-Acetyl-2-phenylglycyl]-7-oxo-2,6-diazabicyclo[3.2.0]-heptane-6-sulphonic acid sodium salt]	150 nM	8 µg/mL	
O=C(/C=C/c1ccc(OS(=O)(=O)[O-])c(OS(=O)(=O)[O-])c1)N1CC[C@@H]2[C@H]1C(=O)N2S(=O)(=O)[O-].[Na+].[Na+].[Na+] [11(c), (1S,5R)-2-[(E)-3,4-Bis(sulphoxy)cinnamoyl]-7-oxo-2,6-diazabicyclo[3.2.0]heptane-6-sulphonic acid sodium salt]		16 µg/mL	1 nM
NC(C(=O)N1CC[C@@H]2[C@H]1C(=O)N2S(=O)(=O)O)c1cccc(O)c1 (mixture of isomers) [6(q), (1S,5R)-2-[DL-2-(m-Hydroxyphenyl)glycyl]-7-oxo-2,6-diazabicyclo[3.2.0]heptane-6-sulphonic acid]	375 nM	2 µg/mL	
Cn1cccc1/C=C/C(=O)N1CC[C@@H]2[C@H]1C(=O)N2S(=O)(=O)[O-].[Na+] [23(c), (1S,5R)-2-[(E)-3-(1-Methyl-pyrrol-2-yl)acryloyl]-7-oxo-2,6-diazabicyclo[3.2.0]heptane-6-sulfonic acid sodium salt]		8 µg/mL	420 nM
N[C@@H](Cc1ccc(O)cc1)C(=O)N1CC[C@@H]2[C@H]1C(=O)N2S(=O)(=O)O [Example 6(b), (1S,5R)-7-Oxo-2-L-tyrosyl-2,6-diazabicyclo[3.2.0]heptane-6-sulphonic acid]	310 nM	4 µg/mL	
O=C(NCc1ccccc1)N1CC[C@@H]2[C@H]1C(=O)N2S(=O)(=O)O [Example 3, (1S,5R)-2-(Benzylcarbamoyl)-7-oxo-2,6-diazabicyclo[3.2.0]heptane-6-sulphonic acid sodium salt]		2 µg/mL	330 nM
O=C(NCc1ccco1)N1CC[C@@H]2[C@H]1C(=O)N2S(=O)(=O)O [Example 17(a), (1S,5R)-2-(2-Furan-2-yl-methylcarbamoyl)-7-oxo-2,6-diazabicyclo[3.2.0]heptane-6-sulphonic acid sodium salt]	156 nM	2 µg/mL	
O=C(CNc1ccccc1)N1CC[C@@H]2[C@H]1C(=O)N2S(=O)(=O)[O-].[Na+] [5(b), (1S,5R)-7-Oxo-2-(N-phenylglycyl)-2,6-diazabicyclo[3.2.0]heptane-6-sulphonic acid sodium salt]		2 µg/mL	110 nM
O=C(CCc1ccccc1)N1CC[C@@H]2[C@H]1C(=O)N2S(=O)(=O)[O-].[Na+] [11(b), (1S,5R)-7-Oxo-2-(3-phenyl-propionyl)-2,6-diazabicyclo[3.2.0]heptane-6-sulphonic acid sodium salt]		16 µg/mL	573 nM
Cn1nnnc1SCC(=O)N1CC[C@@H]2[C@H]1C(=O)N2S(=O)(=O)[O-].[Na+] [5(j), (1S,5R)-2-[[(1-Methyl-1H-tetrazol-5-yl)-thio]acetyl]-7-oxo-2,6-diazabicyclo[3.2.0]heptane-6-sulphonic acid sodium salt]		0.5 µg/mL	23 nM
NS(=O)(=O)c1ccc(CNC(=O)N2CC[C@@H]3[C@H]2C(=O)N3S(=O)(=O)[O-])cc1.[Na+] [17(g), (1S,5R)-7-Oxo-2-(4-sulphamoyl-benzylcarbamoyl)-2,6-diazabicyclo[3.2.0]heptane-6-sulphonic acid sodium salt]		2 µg/mL	427 nM
